The source made the active and inactive calls. No cut-off for these calls is given here. *1 amine or outer side, *2 acyl side, *3 side chain or, on linkers, in order; H or OH if unused. Where a SMILES comes first, the peptide text is derived from it. Bridges are numbered along the chain shown (N, C = ends). Roman numbers before positions name the chains, in order. [ ]: non-standard residue; d: D form. The star is where a group is joined. Hexanoyl(6-succinimido-3yl) = O=C1CC([*:1])C(=O)N1CCCCCC(=O)[*:2]; Dolaproine = CO[C@@H]([C@@H]1CCCN1)[C@@H](C)C(=O)O; Dil = CC[C@H](C)[C@H](NC)[C@@H](CC(=O)O)OC; PABC = O=C(OCc1ccc(N[*:1])cc1)[*:2]; X1 = C[C@@H](N*)[C@@H](O)c1ccccc1; Cit = NC(=O)NCCC[C@H](N)C(=O)O; NMeV = CN[C@H](C(=O)O)C(C)C
Assays:
NUGC-4 [1] = experiment: Cytotoxicity against KK-LC-1-positive human NUGC-4 cells incubated for 72 hrs by CCK-8 assay; type: functional, cell-based; settings: NUGC-4, 72 h
NUGC-4 [2] = experiment: Inhibition of colony formation in KK-LC-1-positive human NUGC-4 cells assessed as decrease in colonies incubated for 24 hrs followed by exposure to 2 Gy gamma irradiation by crystal violet staining based clonogenic assay; type: functional, cell-based
MKN-45 [3] = experiment: Induction of DNA damage in KK-LC-1-positive human MKN-45 cells assessed as double strand breaks by measuring increase in gamma-H2AX foci formation at 100 nM incubated for 24 hrs followed by exposure to 2 Gy gamma irradiation by immunofluorescence staining method; type: functional, cell-based
[4] = Toxicity in male BALB/c nude mouse xenografted with KK-LC-1-positive human NUGC-4 cells assessed as median survival time at 0.3 mg/kg, iv administered once a week for 3 weeks followed by exposure to 2 Gy gamma irradiation for 2 consecutive days once a week for 3 weeks measured after 47 days; type: organism-based; settings: in vivo, 504 h
[5] = Toxicity in male BALB/c nude mouse xenografted with KK-LC-1-positive human MKN-45 cells assessed as effect on liver function at 2 mg/kg, iv administered twice a week for 3 weeks; type: organism-based; settings: in vivo, 504 h
MKN-45 [6] = experiment: Antitumor activity against KK-LC-1-positive human MKN-45 cells xenografted in male BALB/c nude mouse assessed as induction of tumor regression at 1 mg/kg, iv administered twice a week for 3 weeks; type: functional, organism-based
NUGC-4 [7] = experiment: Cell cycle arrest in KK-LC-1-positive human NUGC-4 cells assessed as accumulation at G2/M phase at 100 nM measured after 24 hrs by propidium iodide staining based flow cytometric analysis (reference value: 21.5 +/- 0.7 %); type: functional
[8] = Toxicity in male BALB/c nude mouse xenografted with KK-LC-1-positive human MKN-45 cells assessed as body weight loss at 1 mg/kg, iv administered twice a week for 3 weeks; type: organism-based; settings: in vivo, 504 h
MKN-45 [9] = experiment: Antitumor activity against KK-LC-1-positive human MKN-45 cells xenografted in male BALB/c nude mouse assessed as reduction in tumor growth at 0.3 mg/kg, iv administered twice a week for 3 weeks; type: functional, organism-based
MKN-45 [10] = experiment: Inhibition of colony formation in KK-LC-1-positive human MKN-45 cells assessed as decrease in colonies incubated for 24 hrs followed by exposure to 2 Gy gamma irradiation by crystal violet staining based clonogenic assay; type: functional, cell-based
NUGC-4 [11] = experiment: Cell cycle arrest in KK-LC-1-positive human NUGC-4 cells assessed as increase accumulation at G2/M phase at 100 nM measured after 0 to 48 hrs by propidium iodide staining based flow cytometric analysis; type: functional; settings: time 0-48 hrs, TDE = time-dependent effect
[12] = Stability in human plasma assessed as compound remaining at 500 uM measured after 8 hrs by HPLC analysis; type: ADME, cell-free; settings: read-out: Stability
NUGC-4 [13] = experiment: Induction of apoptosis in KK-LC-1-positive human NUGC-4 cells at 100 nM incubated for 24 hrs followed by exposure to 2 Gy gamma irradiation by AnnexinV/PI-staining based flow cytometry; type: functional, cell-based
[14] = Ratio IC50 for cytotoxicity against KK-LC-1-negative human HGC-27 cells to IC50 for cytotoxicity against KK-LC-1-positive human MKN-45 cells
[15] = Ratio IC50 for cytotoxicity against KK-LC-1-negative human HGC-27 cells to IC50 for cytotoxicity against KK-LC-1-positive human NUGC-4 cells
MKN-45 [16] = experiment: Antitumor activity against KK-LC-1-positive human MKN-45 cells xenografted in male BALB/c nude mouse assessed as tumor volume at 0.3 mg/kg, iv administered twice a week for 3 weeks; type: functional
[17] = Biodistribution in tumor of nude mouse xenografted with KK-LC-1-positive human NUGC-4 cells using Cy5-labeled compound at 10 nmol, iv and measured after 24 hrs by near-infrared imaging method; type: ADME, organism-based, Neoplasm; settings: in vivo
NUGC-4 [18] = experiment: Antitumor activity against KK-LC-1-positive human NUGC-4 cells xenografted in male BALB/c nude mouse assessed as decrease in Ki67 at 0.3 mg/kg, iv administered once a week for 3 weeks followed by exposure to 2 Gy gamma irradiation for 2 consecutive days once a week for 3 weeks measured by immunohistochemical staining analysis; type: functional, organism-based
[19] = target: T1, Kita-kyushu lung cancer antigen 1 (Homo sapiens) (UniProt Q5H943); experiment: Binding affinity to recombinant KK-LC-1 (unknown origin) using FITC-labeled compound at 0.1 to 1000 uM incubated for 2 hrs and measured by FLISA assay; settings: dose 0.1-1000 µM
T1 sequence (whole entry): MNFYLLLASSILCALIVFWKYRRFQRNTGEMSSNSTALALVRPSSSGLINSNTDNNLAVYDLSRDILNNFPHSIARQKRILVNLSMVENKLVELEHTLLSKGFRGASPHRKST

HGC-27 = experiment: Cytotoxicity against KK-LC-1-negative human HGC-27 cells incubated for 72 hrs by CCK-8 assay; type: functional, cell-based; settings: HGC-27, 72 h
[20] = Toxicity in male BALB/c nude mouse xenografted with KK-LC-1-positive human NUGC-4 cells assessed as median survival time at 0.3 mg/kg, iv administered once a week for 3 weeks; type: organism-based; settings: in vivo, 504 h
[21] = Toxicity in male BALB/c nude mouse xenografted with KK-LC-1-positive human MKN-45 cells administered intravenously twice a week for 3 weeks; settings: in vivo, route iv
[22] = Toxicity in male BALB/c nude mouse xenografted with KK-LC-1-positive human MKN-45 cells assessed as effect on liver function at 0.3 mg/kg, iv administered twice a week for 3 weeks; type: organism-based; settings: in vivo, 504 h
NUGC-4 [23] = experiment: Cell cycle arrest in KK-LC-1-positive human NUGC-4 cells assessed as accumulation at G2/M phase at 20 nM measured after 24 hrs by propidium iodide staining based flow cytometric analysis (reference value: 21.5 +/- 0.7 %); type: functional
MKN-45 [24] = experiment: Antitumor activity against KK-LC-1-positive human MKN-45 cells xenografted in male BALB/c nude mouse assessed as induction of tumor regression at 2 mg/kg, iv administered twice a week for 3 weeks; type: functional, organism-based
[25] = Toxicity in male BALB/c nude mouse xenografted with KK-LC-1-positive human MKN-45 cells assessed as body weight loss at 2 mg/kg, iv administered twice a week for 3 weeks; type: organism-based; settings: in vivo, 504 h
NUGC-4 [26] = experiment: Induction of mitotic arrest in KK-LC-1-positive human NUGC-4 cells xenografted in nude mouse assessed as number of pHH3-positive nuclei in tumor at 4 nmol, iv administered as single dose and measured after 24 hrs by pHH3 immunohistochemical staining method relative to control; type: functional
NUGC-4 [27] = experiment: Antitumor activity against KK-LC-1-positive human NUGC-4 cells xenografted in male BALB/c nude mouse assessed as reduction in tumor burden at 0.3 mg/kg, iv administered once a week for 3 weeks followed by exposure to 2 Gy gamma irradiation for 2 consecutive days once a week for 3 weeks; type: functional, organism-based
[28] = Toxicity in male BALB/c nude mouse xenografted with KK-LC-1-positive human MKN-45 cells assessed as effect on kidney function at 0.3 mg/kg, iv administered twice a week for 3 weeks; type: organism-based; settings: in vivo, 504 h
[29] = Toxicity in male BALB/c nude mouse xenografted with KK-LC-1-positive human MKN-45 cells assessed as effect on liver function at 1 mg/kg, iv administered twice a week for 3 weeks; type: organism-based; settings: in vivo, 504 h

## CC[C@H](C)[C@@H]([C@@H](CC(=O)N1CCC[C@H]1[C@H](OC)[C@@H](C)C(=O)N[C@H](C)[C@@H](O)c1ccccc1)OC)N(C)C(=O)[C@@H](NC(=O)[C@@H](NC(=O)[C@H](C(C)C)N(C)C(=O)OCc1ccc(NC(=O)[C@H](CCCNC(N)=O)NC(=O)[C@@H](NC(=O)CCCCCN2C(=O)CC(SC[C@H](N)C(=O)N[C@H]3CSSC[C@@H](C(=O)O)NC(=O)[C@H]([C@@H](C)O)NC(=O)[C@H]([C@@H](C)O)NC(=O)[C@H](CC(C)C)NC(=O)[C@H](C)NC(=O)[C@H]([C@@H](C)O)NC(=O)[C@H](CC(N)=O)NC(=O)[C@H](CCCCN)NC3=O)C2=O)C(C)C)cc1)C(C)C)C(C)C (stereo not given in full) (I: H-CCKNTALTTC-OH / II: V[Cit][PABC][NMeV]VV[Dil][Dolaproine]-X1; linker I:1-II:N via Hexanoyl(6-succinimido-3yl); disulfide I:2-I:10)
NUGC-4 [1]
  IC50: 3.87 nM
NUGC-4 [2]
  inhibition: Active
MKN-45 [3]
  Activity: Active
[4]
  MST: 58 days
[5]
  Activity: Non-Toxic
MKN-45 [6]
  Activity: Active
NUGC-4 [7]
  Activity: 67.4%
[8]
  Activity: Non-Toxic
MKN-45 [9]
  Activity: Active
MKN-45 [10]
  inhibition: Active
NUGC-4 [11]
  Activity: Tde
[12]
  remaining at 8 h, 500 µM: 42.5%
NUGC-4 [13]
  Activity: Active
[14]
  Ratio IC50: 100
[15]
  Ratio IC50: 100
MKN-45 [16]
  Activity: 292.1 mm3
[17]
  Drug uptake: Active
NUGC-4 [18]
  Activity: Active
[19]
  Activity: Active
HGC-27
  IC50: 786 nM
[20]
  MST: 40 days
[21]
  MTD at 504 h: 2 mg/kg
[22]
  Activity: Non-Toxic
NUGC-4 [23]
  Activity: 30.9%
MKN-45 [24]
  Activity: Active
[25]
  Activity: Non-Toxic
NUGC-4 [26]
  Activity: 87
NUGC-4 [27]
  Activity: Active
[28]
  Activity: Non-Toxic
[29]
  Activity: Non-Toxic

Source: ChEMBL document CHEMBL5108004, “An auristatin-based peptide-drug conjugate targeting Kita-Kyushu lung cancer antigen 1 for precision chemoradiotherapy in gastric cancer” (Eur J Med Chem, 2022)
